Experimental data as given in paper PMC6212948, “Fucoxanthin-Containing Cream Prevents Epidermal Hyperplasia and UVB-Induced Skin Erythema in Mice” (Marine Drugs, 2018).
pIC50: −log10 of the molar value.

Experiments:
[1] = cited from earlier work
[2] = tested on: IL-6 and IL-8 production in TNF-α-stimulated HaCaT keratinocytes; assay: IL-6 and IL-8 production in TNF-α-stimulated HaCaT keratinocytes (ELISA); format: cell-based, human; settings: all concentrations tested (10, 30 and 50 μM), 1 h pre-treatment, TNF-α 10 ng/mL 24 h, vs TNF-α group
Description: HaCaT cells were seeded in 6-well plates (5 × 10^5 cells/well). After 24 h, cells were washed twice (PBS, 4 °C) and medium containing FX (10, 30 and 50 μM) or Dex (1 μM) was added for 1 h, and then cells were stimulated with TNF-α (10 ng/mL) except for control group. After 24 h, supernatant fluids were collected and stored −80 °C until measurements. Commercial enzyme-linked immunosorbent assay (ELISA) kit (Diaclone GEN-PROBE, Besançon, France) was used to quantify IL-6 and IL-8 according to the manufacturer’s protocol.

[3] = tested on: HaCaT human keratinocytes; assay: SRB cell viability assay, HaCaT keratinocytes; format: cell-based; settings: for % Viability HaCaT keratinocytes (24 h): mean ± ES, n = 3
Description: (§1) The THP-1 human monocytic leukemia cell line and HaCaT human keratinocytes were obtained from the American Type Culture Collection (ATCC, Manassas, VA, USA). THP-1 cells were cultured in RPMI 1640 medium (GIBCO, Grand Island, New York, NY, USA) containing 10% heat-inactivated fetal bovine serum (FBS), 100 U/mL penicillin and 100 μg/mL streptomycin. HaCaT human keratinocytes were maintained in high glucose Dulbecco’s modified Eagle’s medium (DMEM, GIBCO, Grand Island, New York, NY, USA). Both cell lines were grown in a humidified atmosphere containing 5% CO2 at 37 °C [20].
(§2) SRB assay was used for determining the viability of THP-1 macrophages and HaCaT cells upon exposure to FX (Sigma-Aldrich, St. Louis, MO, USA). Firstly, for differentiation into macrophages, THP-1 cells were seeded into 96-well plates at 10^4 cells/well in presence of phorbol 12-myristate 13-acetate (PMA, Sigma-Aldrich, St. Louis, MO, USA) for a final concentration of 0.2 µM for 72 h in 96-well plates and HaCaT cells were seeded into 96-well plates in the growth medium at 10^4 cells/well for 24 h to ensure the adherence. Both cellular types were incubated in a humidified atmosphere of 5% CO2 at 37 °C. After that, cells were treated with FX at final concentrations range of 10–100 µM in DMSO 0.1% (v/v) and the cytotoxicity was measured after 24, 48 and 72 h of incubation. The absorbance was determined at 492 nm in a microplate spectrophotometer (Sinergy HT, Biotek®, Bad Friedrichshall, Germany).

THP-1 macrophages = assay: SRB cell viability assay, THP-1 macrophages; format: cell-based, human; settings: for % Viability THP-1 macrophages (24 h): mean ± ES, n = 3
Description: as §1, §2

[4] = tested on: UVB-irradiated HaCaT cells; assay: LDH assay in UVB-irradiated HaCaT keratinocytes; format: cell-based, human; settings: 10, 30 and 50 μM, 1 h prior to UVB 50 mJ/cm^2, 24 h, dose-dependent
Description: (§3) Human keratinocytes were exposed to UVB radiation as previously described. Briefly, the cells were grown to confluence and were treated with different concentrations of FX (10, 30 and 50 µM) for 1 h. Then, the medium was removed and a thin layer of PBS was added. Cells were exposed to a single dose of UVB radiation (50 mJ/cm^2) for 1 min. The UVB source was a CL-1000M UV Crosslinker (UVP, Upland, CA, USA), which was used to deliver an energy spectrum of UVB light (280–315 nm; peak intensity, 302 nm). After UVB irradiation, the cells were supplied with fresh complete medium and incubated for 24 h.
The measure of cytosolic enzyme LDH is one of the commonly used methods for assessing loss of cellular membrane integrity. The assay is based on the conversion of […] in the presence of LDH with the consequence oxidation of NADH as previously described. HaCaT cells were seeded in 6-well plates (5 × 10^5 cells/well). After 24 h, cells were treated with FX (10, 30 and 50 μM) for 1 h and then, were irradiated with UVB. After 24 h, cell-free supernatants and cell lysates were mixed in a 96-well plate and the absorbance was read by using a microplate reader system (Sinergy HT, Biotek®, Bad Friedrichshall, Germany). LDH leakage was estimated calculating the LDH activity in the cell-free medium and LDH activity in lysates ratio. […]

[5] = tested on: TNF-α production in LPS-stimulated THP-1 macrophages; assay: TNF-α production in LPS-stimulated THP-1 macrophages (ELISA); format: cell-based, human
Description: THP-1 monocytes were differentiated into macrophages in 96-well plates (10^4 cells/well). Then, cells were incubated for 1 h with FX (10, 30 and 50 µM). The positive reference compound used was Dex (1 µM) (Sigma-Aldrich, St. Louis, MO, USA). Inflammatory response was induced by addition of LPS (1 μg/mL) except for control group. After 24 h, commercial enzyme-linked immunosorbent assay (ELISA) kit (Diaclone GEN-PROBE, Besançon, France) was used to quantify TNF-α according to the manufacturer’s protocol.

[6] = tested on: IL-6 production in UVB-exposed HaCaT keratinocytes; assay: IL-6 production in UVB-exposed HaCaT keratinocytes (ELISA); format: cell-based, human; settings: 1 h prior to UVB, 24 h after exposure, vs UVB
Description: as §3
HaCaT cells (5 × 10^5 cells/well) were seeded in 6-well plates. After 24 h, cells were treated with FX (10, […] and 50 μM) for 1 h and then, were exposed to UVB. After 24 h, supernatant fluids were collected and ELISA kit (Diaclone GEN-PROBE, Besançon, France) was employed to quantify IL-6 according to the manufacturer’s protocol. The absorbance at 450 nm was read by a microplate reader (Labysystem Multiskan EX, Thermo Scientific, New York, NY, USA).

[7] = tested on: UVB-irradiated HaCaT cells; assay: Intracellular ROS (DCF-DA assay) in UVB-irradiated HaCaT keratinocytes; format: cell-based, human; settings: 1 h prior to UVB 50 mJ/cm^2, 30 min after irradiation, vs UVB
Description: as §3
For quantification of ROS in HaCaT cells, the DCF-DA assay was employed. HaCaT cells were seeded in nin96-well plates (10^4 cells/well). Non-irradiated cells were used as negative control. After 24 h, cells were treated with FX (10, 30 and 50 µM) for 1 h and then, were exposed to UVB. Post irradiation, cells were incubated with 2′,7′-dichlorodihydrofluorescein diacetate (DCFH-DA) solution (5 mg/mL) in PBS for 30 min [63]. The fluorescence of the 2′,7′-dichlorofluorescein (DCF) product was determined using a fluorescence plate reader (Sinergy HT, Biotek®, Bad Friedrichshall, Germany) at 485 nm for excitation and 535 nm for emission.

[8] = tested on: TPA-induced epidermal hyperplasia in mice dorsal skin; assay: TPA-induced epidermal hyperplasia model; format: in vivo, Swiss CD-1 mice; settings: topical cream 100 mg per site containing 200 µg drug, vs TPA-cream group
Description: Female Swiss CD-1 mice (n = 10 per group) were used to study the effect of FX on TPA-induced hyperplasia in mice dorsal skin. Briefly, the dorsal hair of animals was removed with an electric clipper and treated with depilatory cream (Deliplus, Barcelona, Spain). After 24 h, the animals were assigned to the different groups: Sham (vehicle: 100 mg of cream with 0.2% of ethanol); TPA control group; TPA-Cream (vehicle: 100 mg of cream with 0.2% of ethanol); Dex-cream (100 mg of cream per site, containing 200 µg of Dex dissolved in ethanol at 10 µg/mL); FX-cream formulation (100 mg of cream per site, containing 200 µg of FX dissolved in ethanol at 10 µg/mL). The creams were applied to the dorsal skin in an area of 1 cm^2 using a syringe, during 2 days before the hyperplasia induction. Mice were anesthetized with ketamine (100 mg/kg of animal) and diazepam (5 mg/kg of animal) during treatments and TPA challenge. On day 4, TPA (2 nmol of TPA, dissolved in 20 µL of ethanol) was topically applied to the same areas on all groups except in sham group. After 1 h, FX-cream, the Dex-cream or vehicle were administered following the mentioned protocol. This procedure was replicated during two consecutive days. After 24 h of the last TPA dorsal application (day 7), mice were sacrificed by cervical dislocation and punch biopsies from the treated dorsal skin were weighed to evaluate edema, before further processing for histology and biochemical parameters.
The measurement of MPO activity was used as a marker of neutrophil infiltration. The tissue was thawed, weighed and homogenized in 10 volumes of 50 mM-PBS (pH 7.4). Then, the homogenate was centrifuged at 20,000× g for 20 min at 4 °C and the pellet was again homogenized in 10 volumes of 50 mM-PBS (pH 6) containing hexadecyl trimethylammonium bromide (0.5%) and 10 mM-EDTA. This homogenate was subjected to one cycle of freezing/thawing and sonicated. […] The changes in absorbance were monitorized at 450 nm with a microplate reader (Labysystem Multiskan EX, Thermo Scientific, New York, NY, USA). MPO activity unit was defined as the amount of enzyme present that produced a change in absorbance of 1.0 unit/min at 37 °C in the final reaction volume containing acetate. Results are expressed as units/mg tissue.
The samples were fixed in paraformaldehyde, dehydrated by increasing concentrations of ethanol and embedded in paraffin. […] Epidermal thickness was measured by using Scientific Imaging Systems (Biophotonics ImageJ Analysis Software; National Institutes of Health, Rockville, MD, USA).
COX-2 expression was measured by immunohistochemical analysis by using a streptavidin-biotin-peroxidase method. […]

[9] = 24 h after treatment, SRB assay

CC(=O)O[C@H]1CC(C)(C)C(=C=C/C(C)=C/C=C/C(C)=C/C=C/C=C(C)/C=C/C=C(\C)C(=O)C[C@@]23O[C@]2(C)C[C@@H](O)CC3(C)C)[C@](C)(O)C1 [FX, fucoxanthin]
partition coefficient (log P) [1]: 6.83–7.54
IL-6 production [2]: significantly reduced
IL-8 production [2]: significantly reduced
% Viability HaCaT keratinocytes (24 h) ([3]; 10 μM): 111.2 ± 2.1%
% Viability HaCaT keratinocytes (24 h) ([3]; 30 μM): 105.2 ± 4.0%
% Viability HaCaT keratinocytes (24 h) ([3]; 50 μM): 103.9 ± 3.2%
% Viability HaCaT keratinocytes (24 h) ([3]; 100 μM): 101.5 ± 2.2%
pIC50 [3, 9]: < 4.00
% Viability THP-1 macrophages (24 h) (THP-1 macrophages; 10 μM): 97.5 ± 2.0%
% Viability THP-1 macrophages (24 h) (THP-1 macrophages; 30 μM): 96.5 ± 1.2%
% Viability THP-1 macrophages (24 h) (THP-1 macrophages; 50 μM): 103.7 ± 1.1%
% Viability THP-1 macrophages (24 h) (THP-1 macrophages; 100 μM): 90.7 ± 0.5%
pIC50 (THP-1 macrophages; [9]): < 4.00
UVB-induced mortality (LDH activity) [4]: significantly decreased
TNF-α production ([5]; 50 µM pre-treatment, LPS-stimulated, p < 0.001, similar values to Dex 1 μM): significant reduction
TNF-α production ([5]; all concentrations tested (10, 30 and 50 μM), 1 h pre-treatment, LPS 1 μg/mL 24 h, vs LPS group): significantly reduced
inhibition of IL-6 levels ([6]; 10 μM): 23%
inhibition of IL-6 levels ([6]; 30 μM): 31%
inhibition of IL-6 levels ([6]; 50 μM): 59%
reduction of ROS levels ([7]; 10 μM): 23%
reduction of ROS levels ([7]; 30 μM): 31%
reduction of ROS levels ([7]; 50 μM): 32%

C[C@@H]1C[C@H]2[C@@H]3CCC4=CC(=O)C=C[C@]4(C)[C@@]3(F)[C@@H](O)C[C@]2(C)[C@@]1(O)C(=O)CO [Dex, dexamethasone]
epidermal hyperplasia (epidermal thickness, H&E) [8]: significant improvement
myeloperoxidase (MPO) activity in skin homogenates [8]: markedly diminished
epidermal COX-2-positive stained cells (immunohistochemistry) ([8]; p < 0.001): confirmed the anti-inflammatory effect
skin edema (weight of 1 cm^2 punch biopsy) ([8]; p < 0.001): significantly reduced
